Laboratory results as given in patent US11548919B1, “SARS-CoV-2 polypeptide inhibitors directed against the Env TM domain and methods of treatment using said inhibitors” (priority 2022, dated 2023).
Entries after “also recorded” stand apart in the source; their conditions may differ. Square brackets hold non-standard residues; d marks the D form. Ends that are not written are not given here. Nap = naphthyl group, N-terminal cap; Aib = CC(C)(N)C(=O)O

Tested on: SARS-CoV-2 Omicron variant pseudovirus
Format: cell-based
Details: for fluorescence of peptide groups versus no-peptide control: N=3

Substance	inhibition of SARS-CoV-2 Omicron pseudovirus infection / replication in mammalian cells	fluorescence of peptide groups versus no-peptide control
NapFFTLUFLTUTEKKKK (Nap-FFTL[Aib]FLT[Aib]TEKKKK)	effectively inhibited viral replication; also recorded: significantly inhibited	statistically (p<0.01) less than
NapFFMLUFLMUMEKKKK (Nap-FFML[Aib]FLM[Aib]MEKKKK)	effectively inhibited viral replication; also recorded: significantly inhibited	statistically (p<0.01) less than
